Assays:
[1] = molecular target: T1, A1 adenosine receptor (Rattus norvegicus, UniProt P25099); experiment: adenosine A1 receptor binding affinity; details: Table 1, n = 2 (mixture, VII'), n = 1 (VII"), read-out: A1 IC50 ± SE
T1 construct: from tissue
T1 sequence (P25099 1-326): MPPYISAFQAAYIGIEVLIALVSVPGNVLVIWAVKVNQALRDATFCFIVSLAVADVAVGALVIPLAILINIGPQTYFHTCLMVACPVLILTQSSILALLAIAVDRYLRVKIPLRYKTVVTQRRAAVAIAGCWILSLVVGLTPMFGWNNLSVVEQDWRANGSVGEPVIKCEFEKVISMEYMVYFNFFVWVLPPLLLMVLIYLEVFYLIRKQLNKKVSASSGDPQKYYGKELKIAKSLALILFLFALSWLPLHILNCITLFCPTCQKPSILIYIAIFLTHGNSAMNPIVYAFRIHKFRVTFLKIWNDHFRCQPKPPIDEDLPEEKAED

[2] = Antihypertensive evaluation (AHP3); format: in vivo; details: AHP3 antihypertensive assay; Table 2; read-out: ED40 (Dose causing a 40 nm drop in blood pressure)
From the text: *Dose causing a […] drop in blood pressure, mg/kg.

| IC50 [1] [nM] | SMILES | ED (40 mm drop in blood pressure) [2] [mg/kg] |
| --- | --- | --- |
| 0.738 ± 0.088 | OC[C@H]1O[C@@H](n2cnc3c(NC4CC5CCC4C5)ncnc32)[C@H](O)[C@@H]1O (mixture of isomers) [Diastereomeric mixture, N^6-endo-bicyclo[2.2.1]heptyl adenosine] | 0.6 |
| – | OC[C@H]1O[C@@H](n2cnc3c(N[C@H]4C[C@H]5CC[C@@H]4C5)ncnc32)[C@H](O)[C@@H]1O [Example 1 (VII'), (1R-endo)-N-Bicyclo[2.2.1]hept-2-yl adenosine] | 0.16 |
| 2.63 | OC[C@H]1O[C@@H](n2cnc3c(N[C@@H]4C[C@@H]5CC[C@H]4C5)ncnc32)[C@H](O)[C@@H]1O [Example 2 (VII"), (1S-endo)-N-Bicyclo[2.2.1]hept-2-yl adenosine] | 0.7 |
